# Literature values as cited in patent publication US20070275092A1, “Therapeutic composition supporting the immune system” (priority 2005, published 2007).
# Details: per day
smiles,measurement,value
[Zn] [zinc],dosage well tolerated but with potential side effects such as anemia (attributable to copper deficiency),200 mg
